Measurements reported in patent publication US20220143103A1, “COMPOSITION FOR PREVENTING OR TREATING NEUROINFLAMMATORY DISORDERS, COMPRISING BEE VENOM EXTRACT AS ACTIVE INGREDIENT” (priority 2019, published 2022).

Tests used:
Type in all cases: cell-based
[1] = tested on: NF-κB (p65, p50, p-IκBα) in BV-2 cells; assay: Western blot of NF-κB subunits and p-IκBα in LPS-treated BV-2 cells; conditions: BV-2, LPS 1 μg/mL, bvPLA2 100 ng/mL, NF-κB inhibitor; FIG. 7B
Experimental: (§1) Blots were incubated with corresponding conjugated secondary antibodies such as anti-mouse, anti-rabbit and anti-goat obtained from Santa Cruz Biotechnology Inc. (Santa Cruz, Calif., USA). Immunoreactive proteins were detected with an enhanced chemiluminescence Western blotting detection system.
(§2) Microglia BV-2 was cultured and treated simultaneously with LPS (1 μg/mL) or Aβ1-42 (2.5 μM) and various concentrations of bvPLA2 (0.01, 0.1, 1 μg/mL) dissolved in PBS. Cells were harvested after 24 hours to measure cell viability, Nitric Oxide concentration, and a level of pro-inflammatory cytokines.
To determine whether or not bvPLA2 affects inhibition of NF-κB translocation, the level of the NF-κB subunit in the nucleus of BV-2 cells was measured by Western blot.

[2] = tested on: TNF-α, IL-1β, IL-6, IL-4, TGF-β in BV-2 cells; assay: qRT-PCR of cytokines in LPS-treated BV-2 cells; conditions: BV-2, LPS 1 μg/mL
Experimental: Pro-inflammatory and anti-inflammatory cytokine levels were measured by quantitative reverse transcription polymerase chain reaction (qRT-PCR). Total RNA was extracted from hippocampal tissue using RiboEX (Geneall biotechnology, Seoul, Korea), and cDNA was synthesized using a High-Capacity cDNA Reverse Transcription kit (Thermo Scientific, Waltham, Mass., USA).
qRT-PCR was performed on a 7500 real-time PCR system (Applied Biosystems, Foster City, Calif., USA) for custom designed primers, and β-actin was used as a house-keeping control using a HiPi Real-Time PCR SYBR green master mix (ELPIS biotech, Daejeon, Korea).
A cycling condition consisting of an initial denaturation step of 3 minutes at 94° C., a denaturation step of 30 seconds at 94° C., an annealing step of 30 seconds at 60° C., and an extension step of 1 minute at 72° C., was continued until 40 cycles. Values obtained for target gene expression were normalized to β-actin and quantified for expression in control samples.
Each sample was performed with the primers in Table 2 below.
as §2

[3] = tested on: iNOS, COX-2, IBA-1 in BV-2 cells; assay: Western blot of iNOS, COX-2, IBA-1 in LPS-treated BV-2 cells; conditions: BV-2, LPS 1 μg/mL
Experimental: To detect target proteins, specific antibodies to iNOS, IBA-1, GFAP, APP and BACE1 (1:1000; Abcam, Inc., Cambridge, UK), COX-2 (1:1000; Novus Biologicals, Inc., CO, USA), c-Jun N-terminal kinase (JNK), extracellular signal-regulated kinase (ERK) 1/2, p-p38 and p38 ([…]; Cell signaling Technology, Inc., MA, USA), p-STAT3, STAT3, p-ERK1/2, p-JNK, and β-actin (1:200; Santa Cruz Biotechnology Inc., Santa Cruz, Calif., USA) were used.
as §1, §2

[4] = tested on: β-secretase; assay: β-secretase activity assay in LPS-treated BV-2 cells; conditions: BV-2, LPS 1 μg/mL, Stattic 1 μM, bvPLA2 1 μg/mL, 24 h; FIG. 21B
Experimental: β-secretase activity in the mouse brain was determined using a commercially available β-secretase activity assay kit (Abcam, Inc., Cambridge, Mass., USA). A solubilized membrane was extracted from brain tissues using a β-secretase extraction buffer, incubated on ice for 1 hour, and centrifuged at 5000×g for 10 minutes at 4° C. to collect supernatant.
A total of 50 μL of sample (100 μg of total protein) or blank (50 μL of β-secretase extraction buffer) was added to each well (96-well plate), then 50 μL of 2× reaction buffer and 2 μL of β-secretase substrate were incubated for 1 hour in a dark room at 37° C. Fluorescence was read at excitation and emission wavelengths of 335 and 495 nm, respectively, using a fluorescence spectrometer (Gemini EM; Molecular Devices, CA, USA).
as §2

[5] = tested on: Aβ1-42 in BV-2 cells; assay: Aβ1-42 ELISA in LPS-treated BV-2 cells; conditions: BV-2, LPS 1 μg/mL, Stattic 1 μM, 24 h
Experimental: Lysates of brain tissue were obtained through a protein extraction buffer containing protease inhibitors. Aβ1-42 and Aβ1-40 levels were measured using the specific mouse β-amyloid peptide 1-42 enzyme-linked immunosorbent assay (ELISA) kit (CSB-E10787m; CUSABIO, Houston, USA) and mouse β-amyloid peptide 1-40 ELISA kit (CSB-E08300m; CUSABIO, Houston, USA), respectively.
To investigate the effect of bvPLA2 on amyloidogenesis in vitro, BV-2 cells were treated with LPS and various concentrations of bvPLA2 (0.01, 0.1, 1 μg/mL) for 24 hours. Aβ1-42 levels in BV-2 cells were determined by ELISA.
The inhibitory effects of a STAT3 inhibitor (Stattic) and the bee venom extracts on amyloid production and neuroinflammation were tested in BV-2 cells. To determine the combination effect of bvPLA2 and Stattic on amyloidogenesis and neuroinflammation in vitro, BV-2 microglia were treated with LPS (1 μg/m L), Stattic (1 μM), or bvPLA2 (1 μg/mL) for 24 h.

| Compound | levels of p-IκBα, p65, and p50 [1] | expression levels of TNF-α, IL-1β, and IL-6 (qRT-PCR) ([2]; bvPLA2 100 ng/mL, NF-κB inhibitor, FIG. 7C) | levels of iNOS and COX-2 (Western blot) ([3]; bvPLA2 100 ng/mL, NF-κB inhibitor, FIG. 7A) | β-secretase activity [4] | Aβ1-42 level (ELISA) [5] [pg/mg] | expression levels of TNF-α, IL-1β, and IL-6 (qRT-PCR) ([2]; Stattic 1 μM, bvPLA2 1 μg/mL, 24 h, FIG. 21E) | intracellular levels of iNOS and COX-2 (Western blot) ([3]; Stattic 1 μM, bvPLA2 1 μg/mL, 24 h, FIG. 21D) |
| --- | --- | --- | --- | --- | --- | --- | --- |
| Cc1ccc(S(=O)(=O)/C=C/C#N)cc1 [Bay 11-7802] | alleviated | decreased | decreased |  |  |  |  |
| O=[N+]([O-])c1ccc2c(c1)S(=O)(=O)C=C2 [Stattic] |  |  |  | decreased | 264.2 ± 4.384 | decreased | decreased |
